Assays:
BeWo = assay: Antiproliferative activity against human BeWo cells assessed as reduction in cell viability after 72 hrs by MTT assay; type: functional, cell-based
SK-MEL = assay: Antiproliferative activity against human SK-MEL cells assessed as reduction in cell growth inhibition; type: functional, cell-based
SK-OV-3 = assay: Antiproliferative activity against human SK-OV-3 cells assessed as reduction in cell viability incubated for 48 hrs by MTT assay; type: functional, cell-based; conditions: SK-OV-3, 48 h
MCF7 [1] = assay: Antiproliferative activity against human MCF7 cells assessed as reduction in cell viability measured after 48 hrs by SRB assay; type: functional, cell-based; conditions: MCF7, 48 h
HT-29 = assay: cells; conditions: Homo sapiens, HT-29, 72 h
P388 = assay: Antiproliferative activity against mouse P388 cells assessed as cell growth inhibition incubated for 72 hrs by MTT assay; type: functional, cell-based; conditions: P388, 72 h
KB = assay: Antiproliferative activity against human KB cells assessed as reduction in cell viability incubated for 48 hrs by MTT assay; type: functional, cell-based
[2] = Antiproliferative activity against human YD-10B cells assessed as cell growth inhibition measured after 72 hrs by MTT assay; type: functional, cell-based
BT-549 = assay: Antiproliferative activity against human BT-549 cells assessed as reduction in cell viability incubated for 48 hrs by MTT assay; type: functional, cell-based; conditions: BT-549, 48 h
EL4 = assay: Antiproliferative activity against mouse EL4 cells assessed as cell growth inhibition incubated for 72 hrs by MTT assay; type: functional, cell-based; conditions: EL4, 72 h
[3] = Cytotoxicity against pig LLC-PK1 cells; type: toxicity, cell-based, Sus scrofa; conditions: read-out: TC50 (the source's name)
Plasmodium falciparum [4] = assay: Antimalarial activity against Plasmodium falciparum K1 assessed as inhibition of malarial growth; type: functional, organism-based
Plasmodium falciparum [5] = assay: Antimalarial activity against Plasmodium falciparum HB3 assessed as inhibition of malarial growth; type: functional, organism-based
Jurkat = assay: Antiproliferative activity against human Jurkat cells assessed as reduction in cell viability incubated for 48 hrs by MTT assay; type: functional, cell-based
HL-60 = assay: Growth inhibition of human HL-60 cells assessed as cell growth inhibition measured after 48 hrs by MTT assay; type: functional
Ehrlich = assay: Cytotoxicity against mouse Ehrlich cells assessed as growth inhibition at 100 ug/ml; type: functional, cell-based
TK-10 = assay: Growth inhibition of human TK-10 cells assessed as cell growth inhibition measured after 48 hrs by MTT assay; type: functional
Plasmodium falciparum [6] = assay: Antimalarial activity against Plasmodium falciparum 3D7 assessed as inhibition of malarial growth; type: functional, organism-based
MCF7 [7] = assay: Growth inhibition of human MCF7 cells assessed as cell growth inhibition incubated for 48 hrs by MTT assay; type: functional
UACC-62 = assay: Growth inhibition of human UACC-62 cells assessed as cell growth inhibition measured after 48 hrs by MTT assay; type: functional
C2G cell line = assay: Cytotoxicity against mouse C2G cells assessed as inhibition of cell growth measured after 72 hrs by MTT assay; type: functional, cell-based
Plasmodium falciparum [8] = assay: Antimalarial activity against Plasmodium falciparum NF54 assessed as reduction in cell growth; type: functional, organism-based
TRAMP-C1A = assay: Cytotoxicity against mouse TRAMP-C1A cells assessed as inhibition of cell growth measured after 72 hrs by MTT assay; type: functional, cell-based
C2D cell line = assay: Cytotoxicity against mouse C2D cell line assessed as inhibition of cell growth measured after 72 hrs by MTT assay; type: functional, cell-based
[9] = Cytotoxicity against rat MTLn3 cells assessed as cell growth inhibition; type: toxicity, cell-based
HeLa = assay: Antiproliferative activity against human Hela cells assessed as cell growth inhibition measured after 48 hrs by MTT assay; type: functional, cell-based
HCT-116 = assay: Antiproliferative activity against human HCT-116 cells assessed as growth after 48 hrs by MTT assay; type: functional, cell-based; conditions: HCT-116, 48 h
TRAMP-C2H = assay: Cytotoxicity against mouse TRAMP-C2H cells assessed as inhibition of cell growth measured after 72 hs by MTT assay; type: functional, cell-based
[10] = Antiproliferative activity against human 1205Lu cells assessed as reduction in cell growth; type: functional, cell-based
[11] = Cytotoxicity against human HFF cells assessed as cell growth inhibition measured after 48 hrs by MTT assay; type: toxicity, cell-based

For `CC(=O)O[C@H]1C(=O)[C@@]2(C)[C@H]([C@H](OC(=O)c3ccccc3)[C@]3(O)C[C@H](OC(=O)[C@H](O)[C@@H](NC(=O)c4ccccc4)c4ccccc4)C(C)=C1C3(C)C)[C@]1(OC(C)=O)CO[C@@H]1C[C@@H]2O` [PACLITAXEL], the IC50 (BeWo) was 0.1 nM, the IC50 (SK-MEL) was 0.1 nM and the IC50 (SK-OV-3) was 0.1 nM. The IC50 (MCF7 [1]) was 0.1 nM, the IC50 (HT-29) was 0.1 nM and the IC50 (P388) was 0.1 nM. For the same molecule, the IC50 (KB) was 0.1 nM, the IC50 [2] was 0.1 nM and the IC50 (BT-549) was 0.1 nM. For the same molecule, the IC50 (EL4) was 0.1 nM and the CC50 [3] was 4390 nM.
`C[C@@H]1CC[C@H]2[C@@H](C)C(CCCOP(=O)(OCCC3O[C@H]4O[C@@]5(C)CC[C@H]6[C@H](C)CC[C@@H]([C@H]3C)[C@@]46OO5)Oc3ccccc3)O[C@H]3O[C@@]4(C)CC[C@@H]1[C@]32OO4` (stereo not given in full) gave an IC50 (Plasmodium falciparum [4]) of 0.5 nM, an IC50 (Plasmodium falciparum [5]) of 0.18 nM and an IC50 (Jurkat) of 13200 nM. The GI50 (HL-60) was 241 nM.
In the case of `C[C@H]1[C@@H](O[C@H]2O[C@H]3O[C@@]4(C)CC[C@H]5[C@H](C)CC[C@@H]([C@H]2C)[C@@]35OO4)O[C@H]2O[C@@]3(C)CC[C@H]4[C@H](C)CC[C@@H]1[C@@]24OO3`, the IC50 (Ehrlich) is reported as 31200 nM.
Molecule `C[C@H]1[C@H](O[C@H]2O[C@H]3O[C@@]4(C)CC[C@H]5[C@H](C)CC[C@@H]([C@H]2C)[C@@]35OO4)O[C@H]2O[C@@]3(C)CC[C@H]4[C@H](C)CC[C@@H]1[C@@]24OO3` has an IC50 (Ehrlich) of 3600 nM.
With `C[C@@H]1CC[C@H]2[C@@H](C)C(OCCCN3CC[N+](CCCOC4O[C@@H]5O[C@]6(C)CC[C@@H]7[C@@H](C)CC[C@H]([C@@H]4C)[C@]57OO6)(CCNc4ccnc5cc(Cl)ccc45)CC3)O[C@H]3O[C@@]4(C)CC[C@@H]1[C@]32OO4` (stereo not given in full) the GI50 (TK-10) was 80 nM, the IC50 (Plasmodium falciparum [6]) was 29.5 nM and the GI50 (MCF7 [7]) was 30 nM. The GI50 (UACC-62) was 40 nM.
In the case of `C[C@@H]1CC[C@H]2[C@@H](C)C(CC(CC3O[C@@H]4O[C@]5(C)CC[C@@H]6[C@@H](C)CC[C@H]([C@@H]3C)[C@]46OO5)C(=O)O)O[C@H]3O[C@@]4(C)CC[C@@H]1[C@]32OO4` (stereo not given in full), the IC50 (C2G cell line) is reported as 134 nM, the IC50 (Plasmodium falciparum [8]) is reported as 2.4 nM and the IC50 (TRAMP-C1A) is reported as 159 nM. The IC50 (C2D cell line) was 231 nM.
In the case of `COP(=O)(OCCCC1O[C@H]2O[C@@]3(C)CC[C@H]4[C@H](C)CC[C@@H]([C@H]1C)[C@@]24OO3)OCCC1O[C@H]2O[C@@]3(C)CC[C@H]4[C@H](C)CC[C@@H]([C@H]1C)[C@@]24OO3` (stereo not given in full), the IC50 (Plasmodium falciparum [4]) is reported as 0.2 nM, the IC50 (Plasmodium falciparum [5]) is reported as 0.09 nM and the IC50 (Jurkat) is reported as 7700 nM. The GI50 (HL-60) was 143 nM.
With `C[C@@H]1CC[C@H]2[C@@H](C)C(CC(CO)CC3O[C@H]4O[C@@]5(C)CC[C@H]6[C@H](C)CC[C@@H]([C@H]3C)[C@@]46OO5)O[C@H]3O[C@@]4(C)CC[C@@H]1[C@]32OO4` (stereo not given in full) the IC50 [9] was 43 nM, the IC50 (C2G cell line) was 15.4 nM and the IC50 (HeLa) was 1060 nM. For the same molecule, the IC50 (HCT-116) was 100 nM, the IC50 (TRAMP-C2H) was 9.2 nM and the IC50 (Plasmodium falciparum [8]) was 0.87 nM. It also gave an IC50 [10] of 4900 nM, an IC50 at 48 h [11] of 48100 nM and an IC50 (C2D cell line) of 18.5 nM.
Molecule `C[C@@H]1CC[C@H]2[C@@H](C)C(OCC(O)COC3O[C@@H]4O[C@]5(C)CC[C@@H]6[C@@H](C)CC[C@H]([C@@H]3C)[C@]46OO5)O[C@H]3O[C@@]4(C)CC[C@@H]1[C@]32OO4` (stereo not given in full) has an IC50 (BT-549) of 480 nM.
`C[C@@H]1CC[C@H]2[C@@H](C)C(CCN3CCC(C4CCN(CCC5O[C@H]6O[C@@]7(C)CC[C@H]8[C@H](C)CC[C@@H]([C@H]5C)[C@@]68OO7)CC4)CC3)O[C@H]3O[C@@]4(C)CC[C@@H]1[C@]32OO4` (stereo not given in full) gave a GI50 (HL-60) of 400 nM.
